Results as given in PubChem BioAssay (NCI).
Values joined by “and” are separate entries in the source; they are usually repeats but may differ in a detail not shown here. Equal entries are not always repeated.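 In this assay, cells in 96-well plates receive the compound at five concentrations for 48 hours. Endpoints are linearly interpolated between the surrounding concentrations. GI50 = concentration required for 50% inhibition of growth. TGI: total growth inhibition.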

Key:
Assay in all cases: NCI-60 cell line screen, 48 h
OVCAR-8 ovarian = test system: OVCAR-8 ovarian
PC-3 prostate = test system: PC-3 prostate
HOP-92 NSCLC = test system: HOP-92 NSCLC
OVCAR-5 ovarian = test system: OVCAR-5 ovarian
SF-295 CNS = test system: SF-295 CNS
SW-620 colon = test system: SW-620 colon
SR leukemia = test system: SR leukemia
UACC-62 melanoma = test system: UACC-62 melanoma

`COC(=O)NCCc1[nH]nc2c1C(=O)C=C(N1CCOCC1)C2=O` was tested, and the TGI (OVCAR-8 ovarian) was > 100 µM, the TGI (PC-3 prostate) was > 100 µM and the TGI (HOP-92 NSCLC) was > 100 µM. The TGI (OVCAR-5 ovarian) was > 100 µM, the TGI (SF-295 CNS) was > 100 µM and the TGI (SW-620 colon) was > 100 µM. For the same compound, the TGI (SR leukemia) was > 100 µM and the TGI (UACC-62 melanoma) was > 100 µM.

`O=C1CCC2(CC1CC(Sc1ccccc1)Sc1ccccc1)OCCO2` (stereo unspecified) was tested, and the TGI (OVCAR-8 ovarian) was > 100 µM, the TGI (PC-3 prostate) was > 100 µM and the TGI (HOP-92 NSCLC) was > 100 µM. The TGI (OVCAR-5 ovarian) was > 100 µM, the TGI (SF-295 CNS) was > 100 µM and the TGI (SW-620 colon) was > 100 µM. The TGI (SR leukemia) was 87.5 µM and the TGI (UACC-62 melanoma) was > 100 µM.

With `CC(=O)OC(/C=C/c1ccccc1)P1(=O)N(CC(C)(C)C)[C@@H]2CCCC[C@H]2N1CC(C)(C)C` (stereo partly specified) the TGI (OVCAR-8 ovarian) was 19.7 µM and 21.6 µM, the TGI (PC-3 prostate) was 12.1 µM and 10.1 µM and the TGI (HOP-92 NSCLC) was 26.4 µM. The TGI (OVCAR-5 ovarian) was 23.4 µM and 23.5 µM, the TGI (SF-295 CNS) was 25.4 µM and 14.9 µM and the TGI (SW-620 colon) was 31.3 µM and 20.7 µM. The TGI (SR leukemia) was 19.5 µM and 14.5 µM and the TGI (UACC-62 melanoma) was 21.1 µM and 23.2 µM.

In the case of `COc1ccc2c(CCN)c(C(=O)O)[nH]c2c1`, the TGI (OVCAR-8 ovarian) is reported as > 100 µM, the TGI (PC-3 prostate) is reported as > 100 µM and the TGI (HOP-92 NSCLC) is reported as > 100 µM. For the same compound, the TGI (OVCAR-5 ovarian) was > 100 µM, the TGI (SF-295 CNS) was > 100 µM and the TGI (SW-620 colon) was > 100 µM. The TGI (SR leukemia) was > 43.7 µM and the TGI (UACC-62 melanoma) was > 100 µM.

For `O=S(=O)(c1ccccc1)n1c2ccc(Br)cc2c2nc3ccccc3nc21`, the TGI (OVCAR-8 ovarian) was > 100 µM, the TGI (PC-3 prostate) was > 100 µM and the TGI (HOP-92 NSCLC) was > 100 µM. For the same compound, the TGI (OVCAR-5 ovarian) was > 100 µM, the TGI (SF-295 CNS) was > 100 µM and the TGI (SW-620 colon) was > 100 µM. The TGI (SR leukemia) was > 100 µM and the TGI (UACC-62 melanoma) was > 100 µM.

Work on `COC(=O)[C@]1(c2cc3ccccc3n2S(=O)(=O)c2ccccc2)CC2CN(C(C)=O)C1CC2=O` (stereo partly specified) yielded a TGI (OVCAR-8 ovarian) of 11.1 µM, a TGI (PC-3 prostate) of 3.83 µM and a TGI (HOP-92 NSCLC) of 16.5 µM. For the same compound, the TGI (OVCAR-5 ovarian) was 13.1 µM, the TGI (SF-295 CNS) was 30.1 µM and the TGI (SW-620 colon) was > 20.9 µM. The TGI (SR leukemia) was 5.12 µM and the TGI (UACC-62 melanoma) was 3.27 µM.

`O=C(O)c1cc2ccccc2c(N=Nc2ccc(S(=O)(=O)Nc3nccs3)cc2)c1O` was tested, and the TGI (OVCAR-8 ovarian) was > 100 µM, the TGI (PC-3 prostate) was > 100 µM and the TGI (HOP-92 NSCLC) was > 100 µM. The TGI (OVCAR-5 ovarian) was > 100 µM, the TGI (SF-295 CNS) was > 100 µM and the TGI (SW-620 colon) was > 100 µM. The TGI (SR leukemia) was > 100 µM and the TGI (UACC-62 melanoma) was > 100 µM.

For `CCCCC(=O)NS(=NC(=O)c1ccccc1)C(Cl)(Cl)Cl` (stereo unspecified), the TGI (OVCAR-8 ovarian) was > 100 µM, the TGI (PC-3 prostate) was > 100 µM and the TGI (HOP-92 NSCLC) was > 100 µM. The TGI (OVCAR-5 ovarian) was > 100 µM, the TGI (SF-295 CNS) was > 100 µM and the TGI (SW-620 colon) was > 100 µM. For the same compound, the TGI (SR leukemia) was > 100 µM and the TGI (UACC-62 melanoma) was > 100 µM.

`COc1ccc2nc3ccc(OC)cc3c(SCCO)c2c1` was tested, and the TGI (OVCAR-8 ovarian) was > 55.4 µM, the TGI (PC-3 prostate) was > 100 µM and the TGI (HOP-92 NSCLC) was > 100 µM. For the same compound, the TGI (OVCAR-5 ovarian) was > 100 µM, the TGI (SF-295 CNS) was > 100 µM and the TGI (SW-620 colon) was > 100 µM. For the same compound, the TGI (SR leukemia) was > 79.1 µM and the TGI (UACC-62 melanoma) was > 100 µM.

With `O=C1CC2(c3ccccc3)ON=C(c3ccccc3)N2c2ccccc2N1` (stereo unspecified) the TGI (OVCAR-8 ovarian) was > 100 µM, the TGI (PC-3 prostate) was > 100 µM and the TGI (HOP-92 NSCLC) was 83.6 µM. The TGI (OVCAR-5 ovarian) was > 100 µM, the TGI (SF-295 CNS) was > 100 µM and the TGI (SW-620 colon) was > 100 µM. The TGI (SR leukemia) was > 100 µM and the TGI (UACC-62 melanoma) was > 100 µM.

In the case of `CCOC(=O)C1=CNC(C(=O)OCC)C1c1cccn1-c1ccc(Cl)cc1[N+](=O)[O-]` (stereo unspecified), the TGI (OVCAR-8 ovarian) is reported as 90.6 µM, the TGI (PC-3 prostate) is reported as 68.9 µM and the TGI (HOP-92 NSCLC) is reported as 51.7 µM. The TGI (OVCAR-5 ovarian) was 60.3 µM, the TGI (SF-295 CNS) was 31.3 µM and the TGI (SW-620 colon) was > 100 µM. The TGI (SR leukemia) was 61.8 µM and the TGI (UACC-62 melanoma) was 35 µM.

With `CN(C)CCNC(=O)c1cccc2c(NCCN(C)C)c3ccccc3nc12` the TGI (OVCAR-8 ovarian) was 12.4 µM, the TGI (PC-3 prostate) was 7.34 µM and the TGI (HOP-92 NSCLC) was 17.8 µM. For the same compound, the TGI (OVCAR-5 ovarian) was 11.1 µM, the TGI (SF-295 CNS) was 17.6 µM and the TGI (SW-620 colon) was > 23.4 µM. It also gave a TGI (SR leukemia) of 3.45 µM and a TGI (UACC-62 melanoma) of 9.19 µM.

With `CC(=O)OCCCOCn1c(Cc2ccccc2)c(C)c(=O)[nH]c1=O` the TGI (OVCAR-8 ovarian) was > 100 µM, the TGI (PC-3 prostate) was > 100 µM and the TGI (HOP-92 NSCLC) was > 100 µM. The TGI (OVCAR-5 ovarian) was > 100 µM, the TGI (SF-295 CNS) was > 100 µM and the TGI (SW-620 colon) was > 100 µM. The TGI (SR leukemia) was > 100 µM and the TGI (UACC-62 melanoma) was > 100 µM.

For `CC(O)c1cc2c(s1)C(=O)c1sccc1C2=O` (stereo unspecified), the TGI (OVCAR-8 ovarian) was 0.616 µM, the TGI (PC-3 prostate) was 1.43 µM and the TGI (HOP-92 NSCLC) was 2.06 µM. For the same compound, the TGI (OVCAR-5 ovarian) was 0.368 µM, the TGI (SF-295 CNS) was 0.191 µM and the TGI (SR leukemia) was > 100 µM. For the same compound, the TGI (UACC-62 melanoma) was 0.126 µM.

`COC(=O)CCC(=O)NC1=C(Nc2ccc(OC)cc2)C(=O)c2ccccc2C1=O` was tested, and the TGI (OVCAR-8 ovarian) was 75.6 µM, the TGI (PC-3 prostate) was > 92.2 µM and the TGI (HOP-92 NSCLC) was 27 µM. The TGI (OVCAR-5 ovarian) was 31 µM, the TGI (SF-295 CNS) was 25.8 µM and the TGI (SW-620 colon) was 29.7 µM. For the same compound, the TGI (SR leukemia) was > 75.9 µM and the TGI (UACC-62 melanoma) was 7.67 µM.

In the case of `CC[C@H](O)[C@H](C)C=C1SCCCS1`, the TGI (OVCAR-8 ovarian) is reported as > 100 µM, the TGI (PC-3 prostate) is reported as > 100 µM and the TGI (HOP-92 NSCLC) is reported as > 100 µM. For the same compound, the TGI (OVCAR-5 ovarian) was > 100 µM, the TGI (SF-295 CNS) was > 100 µM and the TGI (SW-620 colon) was > 100 µM. The TGI (SR leukemia) was > 100 µM and the TGI (UACC-62 melanoma) was > 100 µM.

`Cc1c(Cl)nc(Nc2nc3ccccc3[nH]2)nc1Cl` was tested, and the TGI (OVCAR-8 ovarian) was > 100 µM, the TGI (PC-3 prostate) was > 100 µM and the TGI (HOP-92 NSCLC) was 18.6 µM. For the same compound, the TGI (OVCAR-5 ovarian) was > 100 µM, the TGI (SF-295 CNS) was > 100 µM and the TGI (SW-620 colon) was > 100 µM. The TGI (SR leukemia) was > 100 µM and the TGI (UACC-62 melanoma) was > 100 µM.

In the case of `O=C(Nc1cccc(-n2ccc3c(NC(=O)c4ccccc4)nccc32)c1)Nc1cc(C(F)(F)F)cc(C(F)(F)F)c1`, the GI50 (OVCAR-8 ovarian) is reported as 1.65 µM, the TGI (OVCAR-8 ovarian) is reported as 5.14 µM and the GI50 (PC-3 prostate) is reported as 1.58 µM. The TGI (PC-3 prostate) was > 50 µM, the GI50 (HOP-92 NSCLC) was 0.853 µM and the TGI (HOP-92 NSCLC) was 3.95 µM. For the same compound, the GI50 (OVCAR-5 ovarian) was 1.71 µM, the TGI (OVCAR-5 ovarian) was > 50 µM and the GI50 (SF-295 CNS) was 1.88 µM. For the same compound, the TGI (SF-295 CNS) was 30.5 µM, the GI50 (SW-620 colon) was 2.06 µM and the TGI (SW-620 colon) was > 50 µM. It also gave a GI50 (SR leukemia) of 1.72 µM, a TGI (SR leukemia) of 6.48 µM and a GI50 (UACC-62 melanoma) of 2 µM. For the same compound, the TGI (UACC-62 melanoma) was 13 µM.
